The target in experiment [1] is T1, active BTK enzyme (Upstate 14-552) (Homo sapiens, UniProt Q06187).
T1 construct: purchased Upstate 14-552
As to the kind of experiment: In Vitro BTK Kinase Assay: Btk-PolyGAT-LS Assay. It is filed as biochemical. The following applies: ATP 10 μM, polyGAT 100 nM, BTK 0.25 nM, 30 minutes, TRF readout. On the procedure: In Vitro BTK Kinase Assay: Btk-PolyGAT-LS Assay The purpose of the BTK in vitro assay is to determine compound potency against BTK through the measurement of IC50. Compound inhibition is measured after monitoring the amount of phosphorylation of a fluorescein-labeled polyGAT peptide (Invitrogen PV3611) in the presence of active BTK enzyme (Upstate 14-552), ATP, and inhibitor. The BTK kinase reaction was done in a black 96 well plate (costar 3694). For a typical assay, a 24 μL aliquot of a ATP/peptide master mix (final concentration; ATP 10 μM, polyGAT 100 nM) in kinase buffer (10 mM Tris-HCl pH 7.5, 10 mM MgCl2, 200 μM […], 5 mM DTT, 0.01% Triton X-100, and 0.2 mg/ml casein) is added to each well. Next, […] of a 4-fold, 40× compound titration in 100% DMSO solvent is added, followed by adding 15 μL of BTK enzyme mix in 1× kinase buffer (with a final concentration of 0.25 nM). The assay is incubated for 30 minutes before being stopped with 28 μL of a 50 mM EDTA solution. Aliquots (5 μL) of the kinase reaction are transferred to a low volume white 384 well plate (Coming 3674), and 5 μL of a 2× detection buffer (Invitrogen PV3574, with 4 nM Tb-PY20 antibody, Invitrogen PV3552) is added. The plate is covered and incubated for 45 minutes at room temperature. Time resolved fluorescence (TRF) on Molecular Devices M5 (332 nm excitation; 488 nm emission; 518 nm fluorescein emission) is measured. IC50 values are calculated using a four parameter fit with 100% enzyme activity determined from the DMSO control and 0% activity from the EDTA control.

Experiment [2] has as its system CD69 expression on CD19+ B cells in human whole blood. As to the kind of experiment: In Vitro whole blood CD69 Assay. The conditions noted are these: B-cell; human heparinized whole blood, anti-human IgD stimulation overnight, percentage of CD19+ B cells expressing CD69, flow cytometry; read-out: IC50. It is filed as cell-based. The protocol:
In Vitro whole blood CD69 Assay
Human heparinized venous blood from health donors was aliquoted into 96-well plate and “spiked” with serial dilutions of formula I compounds in DMSO or with DMSO without drug. The final concentration of DMSO in all wells was 0.1%. The plate was incubated at 37° C. for 30 min. Drug-containing samples were stimulated with […] mouse anti-human IgD-dextran (1A62) or […] polyclonal rabbit F(ab′)2 anti-human IgD. Phosphate-buffered saline (PBS) was added to the negative control unstimulated sample and the plates were incubated overnight (18 to 22 hours) at 37° C. Cells were stained with fluorochrome-conjugated anti-CD19 and anti-CD69 antibodies. Lyse/fix solution was used to remove red blood cells by hypotonic lysis and to fix the remaining cells, which were then analyzed by flow cytometry. CD19+ B cells were gated and analyzed for CD69 expression. The percentage of B cells expressing CD69 was plotted versus the log 10 of the concentration of the drug and the best-fit curves (variable Hill slope) were generated to obtain the IC50 value.

Structures are written as SMILES. Bounds are passed on as bounds.

T1 sequence (Q06187 whole entry): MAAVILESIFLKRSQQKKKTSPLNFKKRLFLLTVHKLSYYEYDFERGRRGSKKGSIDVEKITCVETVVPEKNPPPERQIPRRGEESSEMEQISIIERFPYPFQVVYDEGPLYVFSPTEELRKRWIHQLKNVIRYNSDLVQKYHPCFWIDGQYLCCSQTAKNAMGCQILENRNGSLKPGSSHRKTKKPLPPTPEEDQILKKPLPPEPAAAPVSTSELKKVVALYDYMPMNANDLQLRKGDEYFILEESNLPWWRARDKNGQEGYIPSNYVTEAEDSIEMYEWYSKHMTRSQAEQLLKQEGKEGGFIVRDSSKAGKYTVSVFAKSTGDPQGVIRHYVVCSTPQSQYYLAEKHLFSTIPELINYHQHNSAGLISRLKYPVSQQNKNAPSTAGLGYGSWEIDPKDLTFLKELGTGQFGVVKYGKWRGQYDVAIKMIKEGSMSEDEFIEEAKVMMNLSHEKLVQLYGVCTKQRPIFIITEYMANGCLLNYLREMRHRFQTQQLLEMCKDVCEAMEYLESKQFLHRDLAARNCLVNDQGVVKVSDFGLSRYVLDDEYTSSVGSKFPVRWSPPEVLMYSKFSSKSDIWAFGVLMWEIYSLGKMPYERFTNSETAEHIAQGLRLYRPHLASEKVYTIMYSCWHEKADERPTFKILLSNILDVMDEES

Turning to `C=CC(=O)N1CCC[C@H](c2cnccc2-c2ccc(CNC(=O)c3cn(C(C)(C)C)nn3)c(C)c2)C1` (single isomer, unassigned) [Example 24], the results for the half-inhibitory concentration (IC50) in experiment [1] and in experiment [2] were 1 to 10 nM and above 1000 nM, respectively.

Turning to `C=CC(=O)N1CCC[C@@H](c2cnccc2-c2ccc(CNC(=O)c3noc(C4(C)CC4)n3)c(C)c2)C1` (single isomer, unassigned) [Example 28], the IC50 in experiment [1] was above 10 nM; in experiment [2], above 1000 nM.

Regarding `C=CC(=O)N1CCC[C@H](c2cnccc2-c2ccc(CNC(=O)c3nc(C4(C)CC4)no3)c(C)c2)C1` (single isomer, unassigned) [Example 30], the IC50 in experiment [1] is 1 to 10 nM; in experiment [2] it was above 1000 nM.

For `C=CC(=O)N1CCC[C@H](c2cnccc2-c2ccc(CNC(=O)c3cc(C(C)(C)C)on3)c(C)c2)C1` (single isomer, unassigned) [Example 33], the IC50 is 1 to 10 nM in experiment [1] and above 1000 nM in experiment [2].

Regarding `C=CC(=O)N(C)[C@H]1CCC(=O)N(c2cnccc2-c2ccc(CNC(=O)c3nnn(C(C)(C)C)n3)c(C)c2)C1` (single isomer, unassigned) [Example 53 Peak 1], the IC50 in experiment [1] is 1 to 10 nM; in experiment [2], above 1000 nM.

As to `C=CC(=O)N(CC)[C@@H]1CCCN(c2cnccc2-c2ccc(CNC(=O)c3cn(C(C)(C)C)nn3)c(C)c2)C1` (stereo in doubt) [Example 16, 1-(tert-butyl)-N-(4-(3-(3-(N-ethylacrylamido)piperidin-1-yl)pyridin-4-yl)-2-methylbenzyl)-1H-1,2,3-triazole-4-carboxamide], the figures for the IC50 in experiment [1] and in experiment [2] were at most 1 nM and 100 to 1000 nM, respectively.

In the case of `C=CC(=O)N(C1CC1)[C@@H]1CCCN(c2cnccc2-c2ccc(CNC(=O)c3cn(C(C)(C)C)nn3)c(C)c2)C1` (stereo in doubt) [Example 17, 1-(tert-butyl)-N-(4-(3-(3-(N-cyclopropylacrylamido)piperidin-1-yl)pyridin-4-yl)-2-methylbenzyl)-1H-1,2,3-triazole-4-carboxamide], the IC50 in experiment [1] was at most 1 nM; in experiment [2] it was above 1000 nM.

As for `C=CC(=O)N(C)[C@@H]1CCCN(c2cnccc2-c2ccc(CNC(=O)c3noc(C(C)(C)C)n3)c(C)c2F)C1` (stereo in doubt) [Example 19, 5-(tert-butyl)-N-(3-fluoro-2-methyl-4-(3-(3-(N-methylacrylamido)piperidin-1-yl)pyridin-4-yl)benzyl)-1,2,4-oxadiazole-3-carboxamide], the IC50 in experiment [1] was at most 1 nM; in experiment [2], 100 to 1000 nM.

As to `C=CC(=O)N(C)C1CCCN(c2cnccc2-c2ccc(CNC(=O)c3cn(C(C)(C)C)nn3)c(C)c2)C1` (stereo not shown) [Example 1, 1-(tert-butyl)-N-(2-methyl-4-(3-(3-(N-methylacrylamido)piperidin-1-yl)pyridin-4-yl)benzyl)-1H-1,2,3-triazole-4-carboxamide], the IC50 in experiment [1] is at most 1 nM; in experiment [2], 100 to 1000 nM.

Turning to `C=CC(=O)N(C)C1CCN(c2cnccc2-c2ccc(CNC(=O)c3cn(C(C)(C)C)nn3)c(C)c2)C1` (stereo not shown) [Example 2, 1-(tert-butyl)-N-(2-methyl-4-(3-(3-(N-methylacrylamido)pyrrolidin-1-yl)pyridin-4-yl)benzyl)-1H-1,2,3-triazole-4-carboxamide], the figures for the IC50 in experiment [1] and in experiment [2] were 1 to 10 nM and 100 to 1000 nM, respectively.

In turn, `C=CC(=O)N1CCN(c2cnccc2-c2ccc(CNC(=O)c3noc(C4(CF)CC4)n3)c(C)c2)CC1` [Example 98, N-(4-(3-(4-acryloylpiperazin-1-yl)pyridin-4-yl)-2-methylbenzyl)-5-(1-(fluoromethyl)cyclopropyl)-1,2,4-oxadiazole-3-carboxamide] came in with an IC50 in experiment [1] of at most 1 nM.

`C=CC(=O)N1CCN(c2cnccc2-c2ccc(CNC(=O)c3noc(C4(C(F)F)CC4)n3)c(C)c2)CC1` [Example 99, N-(4-(3-(4-acryloylpiperazin-1-yl)pyridin-4-yl)-2-methylbenzyl)-5-(1-(difluoromethyl)cyclopropyl)-1,2,4-oxadiazole-3-carboxamide]: the IC50 in experiment [1] is at most 1 nM.

As a reminder, the IC50 is the concentration needed to halve the response being measured.

For the origin of these results see patent US20240327380A1, “BTK INHIBITORS” (BIOGEN MA INC., priority 2020, published 2024).
